Two molecules from ChEMBL document CHEMBL4507269, “Data for DCP probe BAY-386” (2021) can be followed below.

The structures appear in SMILES notation. Some results are limits rather than exact numbers.

Experiment [1] has as its target Gamma-aminobutyric acid type B receptor subunit 1 (Homo sapiens) (UniProt Q9UBS5). Nature of the experiment: Inhibition of GABAB1A at compound concentration of 10.0 uM in the Eurofins-Panlabs radioligand binding assay (Eurofins_assay_228610). Details: ligand concentration 4 nM; call rule not given here. The following applies: Compound concentration 10.0 uM.
Experiment [2] deals with Platelet. Nature of the experiment: Inhibition of platelet aggregation (human plasma, TRAP-6) (IC90).
Experiment [3] has as its target Sigma non-opioid intracellular receptor 1 (Homo sapiens) (UniProt Q99720). The following applies: Compound concentration 10.0 uM.
Experiment [4] has as its target Mu-type opioid receptor (Homo sapiens) (UniProt P35372). The following applies: Compound concentration 10.0 uM.
Experiment [5] addresses Glutamate receptor ionotropic, kainate (Rattus norvegicus) (UniProt P22756+Q01812+P42260+P42264+Q63273). Nature of the experiment: Inhibition of Glutamate, Kainate at 10 µM in the Eurofins-Panlabs radioligand binding assay (Eurofins_assay_232700). The following applies: Compound concentration 10.0 uM.
The test system of experiment [6] is Platelet. Nature of the experiment: Inhibition of platelet aggregation (human plasma, ADP, Collagen). It is filed as cell-based.
Experiment [7] concerns the target Kappa-type opioid receptor (Homo sapiens) (UniProt P41145). Nature of the experiment: kappa(KOP) (h) Eurofins-Cerep Cellular and Nuclear Receptor Functional Assays. The following applies: Compound concentration 10.0 uM.
Experiment [8] deals with Beta-2 adrenergic receptor (Homo sapiens) (UniProt P07550). The following applies: Compound concentration 10.0 uM.
Experiment [9] deals with Glutamate NMDA receptor (Rattus norvegicus) (UniProt P35439+Q00959+Q00960+Q00961+Q62645+Q8VHN2+Q9R1M7). The following applies: Compound concentration 10.0 uM.
Experiment [10] addresses Estrogen receptor (Homo sapiens) (UniProt P03372). The following applies: Compound concentration 10.0 uM.
In experiment [11] the target is Cannabinoid receptor 1 (Homo sapiens) (UniProt P21554). The following applies: Compound concentration 10.0 uM.
For experiment [12], the target named is GABA-A receptor; anion channel (Rattus norvegicus) (UniProt O09028+P15431+P18506+P18508+P19969+P20236+P23574+P23576+P28471+P28473+P30191+P62813+P63079+P63138+Q91ZM7+Q9ES14). The following applies: Compound concentration 10.0 uM.
Experiment [13] concerns the target ATP-sensitive inward rectifier potassium channel 11 (Cricetulus griseus) (UniProt A0A3L7HHE1). Kind of experiment: Inhibition of Potassium Channel [KATP] at 10 µM in the Eurofins-Panlabs radioligand binding assay (Eurofins_assay_265600). The following applies: Cricetinae; Compound concentration 10.0 uM.
The target in experiment [14] is Sodium-dependent serotonin transporter (Homo sapiens) (UniProt P31645). The following applies: Compound concentration 10.0 uM.
Experiment [15] addresses Beta-1 adrenergic receptor (Homo sapiens) (UniProt P08588). The following applies: Compound concentration 10.0 uM.
For experiment [16], the target named is T1, Muscarinic acetylcholine receptor M4 (Homo sapiens) (UniProt P08173).
T1 sequence (whole entry): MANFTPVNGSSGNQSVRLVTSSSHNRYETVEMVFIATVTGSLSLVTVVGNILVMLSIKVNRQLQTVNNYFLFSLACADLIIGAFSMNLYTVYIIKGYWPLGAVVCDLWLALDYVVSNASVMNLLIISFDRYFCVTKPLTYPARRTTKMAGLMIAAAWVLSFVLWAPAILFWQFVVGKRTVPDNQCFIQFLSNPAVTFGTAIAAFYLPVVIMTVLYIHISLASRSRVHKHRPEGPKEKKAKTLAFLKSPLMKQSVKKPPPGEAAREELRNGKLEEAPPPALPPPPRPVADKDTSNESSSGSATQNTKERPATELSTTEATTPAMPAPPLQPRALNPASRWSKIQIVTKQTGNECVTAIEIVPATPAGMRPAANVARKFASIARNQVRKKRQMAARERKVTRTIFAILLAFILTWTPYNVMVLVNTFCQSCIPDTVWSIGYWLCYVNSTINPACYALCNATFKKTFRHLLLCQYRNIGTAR
The following applies: Compound concentration 10.0 uM.

Experiment [17] has as its target Mu-type opioid receptor (Homo sapiens) (UniProt P35372). Kind of experiment: mu (MOP) (h) Eurofins-Cerep Cellular and Nuclear Receptor Functional Assays. The following applies: Compound concentration 10.0 uM.

Sequence of Mu-type opioid receptor (Homo sapiens) (P35372 whole entry): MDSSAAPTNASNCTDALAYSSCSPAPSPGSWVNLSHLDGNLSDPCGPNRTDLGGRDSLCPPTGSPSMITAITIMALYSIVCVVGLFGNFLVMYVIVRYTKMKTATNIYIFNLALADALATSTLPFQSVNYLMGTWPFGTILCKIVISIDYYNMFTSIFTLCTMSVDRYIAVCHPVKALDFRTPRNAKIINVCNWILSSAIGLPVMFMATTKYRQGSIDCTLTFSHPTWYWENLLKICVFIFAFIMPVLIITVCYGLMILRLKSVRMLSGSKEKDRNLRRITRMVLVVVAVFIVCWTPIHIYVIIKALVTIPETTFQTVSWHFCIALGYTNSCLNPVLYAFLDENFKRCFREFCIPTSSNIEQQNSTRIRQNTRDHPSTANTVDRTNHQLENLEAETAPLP
Sequence of Kappa-type opioid receptor (Homo sapiens) (P41145 whole entry): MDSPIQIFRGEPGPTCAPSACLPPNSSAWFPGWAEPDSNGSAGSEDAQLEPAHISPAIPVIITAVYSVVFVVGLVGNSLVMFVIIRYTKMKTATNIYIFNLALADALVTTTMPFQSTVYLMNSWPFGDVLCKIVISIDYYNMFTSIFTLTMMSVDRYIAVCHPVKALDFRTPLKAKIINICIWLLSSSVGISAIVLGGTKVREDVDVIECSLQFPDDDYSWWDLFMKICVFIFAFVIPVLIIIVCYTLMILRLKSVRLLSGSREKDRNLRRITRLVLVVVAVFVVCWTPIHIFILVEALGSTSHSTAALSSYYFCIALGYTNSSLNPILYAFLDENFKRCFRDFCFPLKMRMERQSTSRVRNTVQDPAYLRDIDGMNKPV
Sequence of Beta-2 adrenergic receptor (Homo sapiens) (P07550 whole entry, looked up): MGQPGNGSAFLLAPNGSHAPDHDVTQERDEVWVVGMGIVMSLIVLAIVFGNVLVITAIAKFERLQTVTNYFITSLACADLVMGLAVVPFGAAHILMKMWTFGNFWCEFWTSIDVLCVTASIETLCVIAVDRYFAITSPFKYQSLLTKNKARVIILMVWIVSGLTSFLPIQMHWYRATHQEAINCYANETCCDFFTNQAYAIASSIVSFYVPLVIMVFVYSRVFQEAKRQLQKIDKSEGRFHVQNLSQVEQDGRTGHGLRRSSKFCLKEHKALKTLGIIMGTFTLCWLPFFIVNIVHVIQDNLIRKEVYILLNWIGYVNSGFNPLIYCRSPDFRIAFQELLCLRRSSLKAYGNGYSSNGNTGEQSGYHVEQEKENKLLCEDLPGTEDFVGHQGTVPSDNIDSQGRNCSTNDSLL
Sequence of ATP-sensitive inward rectifier potassium channel 11 (Cricetulus griseus) (A0A3L7HHE1 as listed by the source): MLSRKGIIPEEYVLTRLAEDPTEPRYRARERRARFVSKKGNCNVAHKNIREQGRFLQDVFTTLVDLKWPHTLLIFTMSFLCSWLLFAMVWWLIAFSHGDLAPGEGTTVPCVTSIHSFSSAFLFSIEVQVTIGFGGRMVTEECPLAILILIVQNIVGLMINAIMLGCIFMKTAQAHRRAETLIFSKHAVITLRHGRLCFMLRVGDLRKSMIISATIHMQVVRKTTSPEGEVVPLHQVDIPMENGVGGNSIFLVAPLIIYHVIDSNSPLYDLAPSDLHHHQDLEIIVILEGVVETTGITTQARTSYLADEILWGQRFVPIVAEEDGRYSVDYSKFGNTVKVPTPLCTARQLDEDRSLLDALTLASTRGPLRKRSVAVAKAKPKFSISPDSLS
Sequence of Cannabinoid receptor 1 (Homo sapiens) (P21554 whole entry): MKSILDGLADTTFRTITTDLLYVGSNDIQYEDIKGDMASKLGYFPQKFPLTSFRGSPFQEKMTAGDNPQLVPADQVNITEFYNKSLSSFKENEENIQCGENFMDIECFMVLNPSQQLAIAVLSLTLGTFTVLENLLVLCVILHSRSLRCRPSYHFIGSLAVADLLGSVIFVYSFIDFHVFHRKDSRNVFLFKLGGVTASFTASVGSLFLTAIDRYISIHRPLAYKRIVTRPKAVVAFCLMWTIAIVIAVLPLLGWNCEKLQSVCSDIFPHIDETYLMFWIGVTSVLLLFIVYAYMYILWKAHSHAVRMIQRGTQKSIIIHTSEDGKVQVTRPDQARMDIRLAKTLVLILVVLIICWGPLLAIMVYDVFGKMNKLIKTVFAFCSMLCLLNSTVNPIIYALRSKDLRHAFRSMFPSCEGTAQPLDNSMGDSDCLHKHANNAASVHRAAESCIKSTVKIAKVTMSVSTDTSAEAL
Sequence of Estrogen receptor (Homo sapiens) (P03372 whole entry): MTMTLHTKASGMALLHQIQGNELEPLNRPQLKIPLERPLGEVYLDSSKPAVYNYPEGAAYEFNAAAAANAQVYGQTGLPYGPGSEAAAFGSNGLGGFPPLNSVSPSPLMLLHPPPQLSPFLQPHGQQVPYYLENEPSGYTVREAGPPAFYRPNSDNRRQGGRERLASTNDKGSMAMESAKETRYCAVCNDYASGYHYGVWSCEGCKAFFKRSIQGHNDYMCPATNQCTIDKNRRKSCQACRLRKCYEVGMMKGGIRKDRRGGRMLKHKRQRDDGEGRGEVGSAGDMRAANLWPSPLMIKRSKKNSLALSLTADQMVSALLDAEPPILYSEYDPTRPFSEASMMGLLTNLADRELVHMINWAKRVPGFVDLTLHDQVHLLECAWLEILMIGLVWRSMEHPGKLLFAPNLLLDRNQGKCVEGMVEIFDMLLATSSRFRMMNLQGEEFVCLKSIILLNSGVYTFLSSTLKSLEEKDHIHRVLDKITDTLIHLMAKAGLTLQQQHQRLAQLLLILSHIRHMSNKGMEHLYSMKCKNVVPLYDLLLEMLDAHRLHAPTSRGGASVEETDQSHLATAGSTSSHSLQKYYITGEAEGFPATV
Sequence of Gamma-aminobutyric acid type B receptor subunit 1 (Homo sapiens) (Q9UBS5 whole entry): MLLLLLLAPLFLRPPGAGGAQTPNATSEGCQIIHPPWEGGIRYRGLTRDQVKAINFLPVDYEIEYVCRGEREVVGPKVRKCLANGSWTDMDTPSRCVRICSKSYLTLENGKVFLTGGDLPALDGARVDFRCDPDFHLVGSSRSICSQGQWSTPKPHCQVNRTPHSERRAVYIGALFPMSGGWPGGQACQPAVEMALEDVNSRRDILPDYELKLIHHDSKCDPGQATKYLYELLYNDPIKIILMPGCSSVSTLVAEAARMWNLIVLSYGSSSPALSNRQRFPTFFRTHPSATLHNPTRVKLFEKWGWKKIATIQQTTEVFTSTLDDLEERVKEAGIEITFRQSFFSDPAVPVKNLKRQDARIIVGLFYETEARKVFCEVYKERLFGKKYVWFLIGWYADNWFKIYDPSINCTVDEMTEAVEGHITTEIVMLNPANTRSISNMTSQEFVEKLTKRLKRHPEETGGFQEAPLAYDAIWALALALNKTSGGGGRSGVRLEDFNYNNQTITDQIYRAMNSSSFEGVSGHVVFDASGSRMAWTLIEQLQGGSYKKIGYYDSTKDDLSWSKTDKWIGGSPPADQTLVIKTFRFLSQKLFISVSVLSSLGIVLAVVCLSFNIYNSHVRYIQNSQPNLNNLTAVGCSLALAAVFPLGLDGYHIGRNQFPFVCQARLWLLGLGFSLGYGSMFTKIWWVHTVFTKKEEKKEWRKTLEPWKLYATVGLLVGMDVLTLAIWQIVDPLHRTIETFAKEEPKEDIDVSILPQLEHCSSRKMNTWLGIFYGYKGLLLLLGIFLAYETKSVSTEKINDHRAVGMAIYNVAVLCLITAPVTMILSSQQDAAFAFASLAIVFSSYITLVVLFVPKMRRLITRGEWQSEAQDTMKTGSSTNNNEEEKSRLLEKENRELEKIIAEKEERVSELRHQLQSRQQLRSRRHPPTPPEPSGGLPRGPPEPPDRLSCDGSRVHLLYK
Sequence of Beta-1 adrenergic receptor (Homo sapiens) (P08588 whole entry, looked up): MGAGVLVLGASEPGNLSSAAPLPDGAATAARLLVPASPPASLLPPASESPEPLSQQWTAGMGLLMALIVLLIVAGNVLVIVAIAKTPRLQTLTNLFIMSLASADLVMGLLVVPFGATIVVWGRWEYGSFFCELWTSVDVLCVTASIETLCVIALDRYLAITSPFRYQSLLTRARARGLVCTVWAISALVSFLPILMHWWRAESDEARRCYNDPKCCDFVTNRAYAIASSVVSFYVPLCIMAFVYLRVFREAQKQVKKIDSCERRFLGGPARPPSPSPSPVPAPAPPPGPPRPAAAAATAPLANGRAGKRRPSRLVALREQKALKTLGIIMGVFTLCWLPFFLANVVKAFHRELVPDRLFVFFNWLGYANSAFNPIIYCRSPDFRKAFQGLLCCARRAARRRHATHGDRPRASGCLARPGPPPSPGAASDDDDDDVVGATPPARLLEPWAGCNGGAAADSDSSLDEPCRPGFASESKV
Sequence of Sodium-dependent serotonin transporter (Homo sapiens) (P31645 whole entry, looked up): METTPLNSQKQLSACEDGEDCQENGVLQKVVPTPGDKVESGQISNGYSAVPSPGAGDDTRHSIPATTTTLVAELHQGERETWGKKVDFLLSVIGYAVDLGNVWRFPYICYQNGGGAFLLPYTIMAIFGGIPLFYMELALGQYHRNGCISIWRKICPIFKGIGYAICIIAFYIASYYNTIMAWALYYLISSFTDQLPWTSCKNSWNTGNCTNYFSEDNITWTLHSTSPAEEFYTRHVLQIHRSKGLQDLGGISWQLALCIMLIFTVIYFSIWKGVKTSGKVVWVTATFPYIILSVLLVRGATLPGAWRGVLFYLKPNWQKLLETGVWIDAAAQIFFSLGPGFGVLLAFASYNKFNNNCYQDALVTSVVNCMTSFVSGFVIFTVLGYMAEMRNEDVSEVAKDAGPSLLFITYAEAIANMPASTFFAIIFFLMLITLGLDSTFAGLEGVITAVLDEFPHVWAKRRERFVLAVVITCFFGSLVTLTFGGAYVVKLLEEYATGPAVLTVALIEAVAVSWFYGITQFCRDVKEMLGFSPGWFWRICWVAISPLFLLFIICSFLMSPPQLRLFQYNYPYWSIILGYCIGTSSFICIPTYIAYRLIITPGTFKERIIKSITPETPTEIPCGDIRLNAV
Sequence of Sigma non-opioid intracellular receptor 1 (Homo sapiens) (Q99720 whole entry): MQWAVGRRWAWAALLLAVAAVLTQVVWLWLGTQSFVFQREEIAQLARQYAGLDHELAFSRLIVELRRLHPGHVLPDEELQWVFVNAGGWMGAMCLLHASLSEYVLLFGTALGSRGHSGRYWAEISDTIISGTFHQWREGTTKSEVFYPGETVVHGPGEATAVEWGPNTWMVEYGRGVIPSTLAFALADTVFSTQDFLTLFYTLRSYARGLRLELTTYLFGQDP

A word on the inhibition: it is the relative decrease from the control value, in per cent. By IC90 is commonly meant the concentration needed for an effect of 90%. For orientation: IC50 means the concentration at which inhibition is half-maximal. High values mean lower potency, low ones higher potency. Take `O=C(N1CCS(=O)(=O)CC1)N1C[C@H](c2ccc(OC(F)(F)F)cc2)C[C@H](c2nc(C3CC3)no2)C1` [BAY-386]: the inhibition is 10% in experiment [1]; 40.3% in experiment [3]; 6% in experiment [4]; 15% in [5]; 0% in experiment [8]; 12% in [9]. The inhibition in experiment [10] was -1%; in [11], 88%; in [12] it was -3%; in experiment [13], 4%; in experiment [14], 3%. The molecule also gave an IC90 in experiment [2] of 0.68 µM. For the same molecule, the IC50 in experiment [6] was > 100 µM (not active). In experiment [7], the % Inhibition of Control Agonist Response (Mean n=2) was 4.5%. For the same molecule, the % of Control Agonist Response (Mean n=2) in experiment [7] was 20.6%.
For the molecule `Cc1noc([C@H]2C[C@@H](c3ccc(C(F)(F)F)cc3)CN(C(=O)N3CCS(=O)(=O)C3)C2)n1` [BAY-448], in [15], the inhibition was 3.66%. Moreover, in experiment [16], the inhibition is -0.58%. Besides, in experiment [17], the % Inhibition of Control Agonist Response (Mean n=2) was -4.8% and the % of Control Agonist Response (Mean n=2) came out at 36%.
